Results on three molecules are retold here after PMC2900928 (Cell, 2010).

Molecules are shown by their SMILES.

One experiment addresses T1, BT1754-PD (Bacteroides thetaiotaomicron, UniProt Q8A6X1).
T1 sequence (Q8A6X1 29-343): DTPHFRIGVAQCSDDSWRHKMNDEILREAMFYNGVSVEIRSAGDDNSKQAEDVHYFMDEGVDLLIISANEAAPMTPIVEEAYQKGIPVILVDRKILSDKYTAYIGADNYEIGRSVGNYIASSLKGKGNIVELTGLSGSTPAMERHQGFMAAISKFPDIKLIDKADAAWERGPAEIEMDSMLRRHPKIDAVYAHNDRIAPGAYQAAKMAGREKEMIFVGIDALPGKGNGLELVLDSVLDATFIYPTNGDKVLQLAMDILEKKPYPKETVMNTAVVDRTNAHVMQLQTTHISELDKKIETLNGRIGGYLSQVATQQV
The experiment can be described thus: isothermal titration calorimetry. The class given is binding. Conditions: 20 mM Tris-HCl, pH 8.0; 1:1 stoichiometry, single site. On the technique in general: Isothermal titration calorimetry measures the heat released or taken up as one component is titrated into another.

The next experiment addresses T2, BT1765 (Bacteroides thetaiotaomicron, UniProt Q8A6W1).
T2 sequence (Q8A6W1 26-627): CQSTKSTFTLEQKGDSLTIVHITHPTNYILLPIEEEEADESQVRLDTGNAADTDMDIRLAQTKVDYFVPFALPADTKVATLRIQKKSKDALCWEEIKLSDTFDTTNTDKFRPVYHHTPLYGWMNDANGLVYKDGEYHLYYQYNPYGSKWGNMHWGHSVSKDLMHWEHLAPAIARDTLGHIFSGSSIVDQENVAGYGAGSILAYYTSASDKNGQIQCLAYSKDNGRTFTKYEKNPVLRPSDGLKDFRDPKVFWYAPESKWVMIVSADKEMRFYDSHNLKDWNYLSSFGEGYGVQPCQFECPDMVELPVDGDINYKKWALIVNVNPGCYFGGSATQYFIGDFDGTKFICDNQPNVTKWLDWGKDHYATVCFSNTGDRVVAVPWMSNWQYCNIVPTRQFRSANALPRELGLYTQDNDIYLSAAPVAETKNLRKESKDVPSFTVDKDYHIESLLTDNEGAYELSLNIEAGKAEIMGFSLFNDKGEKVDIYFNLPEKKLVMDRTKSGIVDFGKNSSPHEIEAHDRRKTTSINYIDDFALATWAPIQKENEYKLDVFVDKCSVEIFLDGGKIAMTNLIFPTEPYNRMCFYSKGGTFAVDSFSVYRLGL
In words: fructose release. The experiment is classed as biochemical. The conditions noted are these: 20 mM Tris-HCl, pH 8.0, 37°C.

For another experiment, the target named is T3, BT1759 (Bacteroides thetaiotaomicron, UniProt Q8A6W7).
T3 sequence (Q8A6W7 29-610): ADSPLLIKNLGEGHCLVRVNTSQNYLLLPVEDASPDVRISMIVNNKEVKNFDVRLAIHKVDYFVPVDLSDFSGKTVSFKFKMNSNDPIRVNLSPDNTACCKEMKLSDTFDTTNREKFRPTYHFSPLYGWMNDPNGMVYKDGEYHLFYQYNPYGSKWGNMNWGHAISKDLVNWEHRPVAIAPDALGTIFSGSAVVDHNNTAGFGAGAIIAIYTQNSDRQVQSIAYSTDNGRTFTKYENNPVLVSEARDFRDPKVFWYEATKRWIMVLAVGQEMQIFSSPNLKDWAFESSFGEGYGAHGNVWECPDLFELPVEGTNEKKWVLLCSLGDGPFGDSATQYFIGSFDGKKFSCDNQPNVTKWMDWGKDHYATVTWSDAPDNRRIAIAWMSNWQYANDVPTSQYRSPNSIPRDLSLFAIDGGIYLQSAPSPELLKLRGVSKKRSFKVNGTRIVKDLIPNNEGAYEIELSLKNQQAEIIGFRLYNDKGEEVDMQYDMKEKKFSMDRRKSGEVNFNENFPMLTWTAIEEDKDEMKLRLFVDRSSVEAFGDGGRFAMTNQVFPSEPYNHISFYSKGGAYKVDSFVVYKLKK
The experiment can be described thus: fructose release. The conditions noted are these: 20 mM Tris-HCl, pH 8.0, 37°C. The experiment is classed as biochemical.

Another experiment addresses T4, BT3082 (Bacteroides thetaiotaomicron, UniProt Q8A373).
T4 sequence (Q8A373 21-548): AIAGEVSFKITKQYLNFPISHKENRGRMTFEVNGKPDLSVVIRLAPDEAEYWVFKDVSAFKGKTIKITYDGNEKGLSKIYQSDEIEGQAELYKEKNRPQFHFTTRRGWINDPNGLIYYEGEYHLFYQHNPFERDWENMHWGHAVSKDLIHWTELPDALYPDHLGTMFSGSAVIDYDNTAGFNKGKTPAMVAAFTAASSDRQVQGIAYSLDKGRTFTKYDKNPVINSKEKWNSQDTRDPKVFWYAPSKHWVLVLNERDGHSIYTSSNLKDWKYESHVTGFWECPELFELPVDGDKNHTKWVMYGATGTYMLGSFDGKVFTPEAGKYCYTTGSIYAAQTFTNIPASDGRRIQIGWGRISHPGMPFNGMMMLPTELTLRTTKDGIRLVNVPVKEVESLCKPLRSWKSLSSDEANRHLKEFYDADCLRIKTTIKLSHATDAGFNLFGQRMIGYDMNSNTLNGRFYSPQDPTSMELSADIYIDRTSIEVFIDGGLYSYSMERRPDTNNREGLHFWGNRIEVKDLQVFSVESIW
The experiment can be described thus: fructose release. The class given is biochemical. Conditions: 20 mM Tris-HCl, pH 8.0, 37°C.

Regarding `OCC1(O)OC[C@@H](O)[C@@H](O)[C@@H]1O` (some centres unmarked) [fructose], the dissociation constant Kd (usually the free concentration of one partner at which half of the binding sites on the other are occupied at equilibrium, for simple one-to-one binding) at BT1754-PD was around 2000 nM.
Turning to `OC[C@H]1O[C@@](CO)(OC[C@H]2OC(O)(CO)[C@@H](O)[C@@H]2O)[C@@H](O)[C@@H]1O` (some centres unmarked) [L2, levanbiose], the KM result at BT1765 is reported as “the enzyme is also able to efficiently degrade levanbiose (Table S2)”.
Turning to `OC[C@H]1O[C@@](CO)(O[C@H]2O[C@H](CO)[C@@H](O)[C@H](O)[C@H]2O)[C@@H](O)[C@@H]1O` [sucrose], the KM entry was “BT1765 prefers sucrose over any of the other oligo- or polysaccharides tested” at BT1765; “BT1759 and BT3082 also cleave sucrose” at BT1759; “BT1759 and BT3082 also cleave sucrose” on BT3082.
